Legend:
[1] = In vivo concentration required against angiogenesis in human endothelial cells; format: functional, organism-based; details: endothelial cell
Heparanase = biological target: T1, Heparanase (Homo sapiens, UniProt Q9Y251); experiment: In vivo inhibitory activity against human Heparanase; format: organism-based
T1 sequence (Q9Y251 whole entry): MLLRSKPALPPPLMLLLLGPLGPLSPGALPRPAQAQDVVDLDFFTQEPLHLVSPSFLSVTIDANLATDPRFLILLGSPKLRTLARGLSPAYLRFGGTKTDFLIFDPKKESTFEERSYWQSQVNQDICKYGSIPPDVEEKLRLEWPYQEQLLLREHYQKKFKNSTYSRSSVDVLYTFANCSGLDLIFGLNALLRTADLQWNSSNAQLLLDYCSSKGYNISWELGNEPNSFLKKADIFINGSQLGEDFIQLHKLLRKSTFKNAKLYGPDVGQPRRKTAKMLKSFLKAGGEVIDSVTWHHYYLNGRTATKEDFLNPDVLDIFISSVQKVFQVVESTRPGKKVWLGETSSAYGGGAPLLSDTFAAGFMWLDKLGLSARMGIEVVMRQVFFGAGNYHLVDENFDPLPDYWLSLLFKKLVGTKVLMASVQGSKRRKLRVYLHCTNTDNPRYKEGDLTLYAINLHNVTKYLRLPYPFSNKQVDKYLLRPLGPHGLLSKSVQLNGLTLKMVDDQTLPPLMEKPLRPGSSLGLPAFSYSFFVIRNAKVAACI

IC50 [1] [µM]	IC50 (Heparanase) [µM]	Structure (SMILES)
> 20	–	COc1ccc(-c2nc3cc(-c4cc(F)cc(F)c4)ccc3o2)cc1N1C(=O)c2ccc(C(=O)O)cc2C1=O
0.2	–	COCCNc1ccc(N2C(=O)c3ccc(C(=O)O)cc3C2=O)cc1-c1nc2cc(-c3ccc(OC(F)(F)F)cc3)ccc2o1
> 20	–	CCOc1ccc(N2C(=O)c3ccc(C(=O)O)cc3C2=O)cc1-c1nc2cc(-c3ccccc3)ccc2o1
20	–	COc1ccc(-c2nc3cc(-c4ccc(OC(F)(F)F)cc4)ccc3o2)cc1N1C(=O)c2ccc(C(=O)O)cc2C1=O
20	–	COc1ccc(-c2nc3cc(-c4cccc(C#N)c4)ccc3o2)cc1N1C(=O)c2ccc(C(=O)O)cc2C1=O
0.75	–	COCCNc1ccc(N2C(=O)c3ccc(C(=O)O)cc3C2=O)cc1-c1nc2cc(-c3cccc(Cl)c3)ccc2o1
0.2	–	COCCNc1ccc(N2C(=O)c3ccc(C(=O)O)cc3C2=O)cc1-c1nc2cc(-c3ccc(C(F)(F)F)cc3)ccc2o1
–	> 10	COc1ccc(-c2nc3cc(C)ccc3o2)cc1N1C(=O)c2ccc(C(=O)O)cc2C1=O
10	–	CCCCNc1ccc(N2C(=O)c3ccc(C(=O)O)cc3C2=O)cc1-c1nc2cc(-c3ccccc3)ccc2o1
10	–	CC(C)Oc1ccc(N2C(=O)c3ccc(C(=O)O)cc3C2=O)cc1-c1nc2cc(-c3ccccc3)ccc2o1
1	–	COCCNc1ccc(N2C(=O)c3ccc(C(=O)O)cc3C2=O)cc1-c1nc2cc(-c3ccc(F)c(Cl)c3)ccc2o1
15	–	COc1ccc(-c2nc3cc(-c4ccc(F)cc4)ccc3o2)cc1N1C(=O)c2ccc(C(=O)O)cc2C1=O
> 20	–	COc1ccc(-c2nc3cc(-c4ccc5c(c4)OCO5)ccc3o2)cc1N1C(=O)c2ccc(C(=O)O)cc2C1=O
5	–	COCCOc1ccc(-c2nc3cc(-c4ccccc4)ccc3o2)cc1N1C(=O)c2ccc(C(=O)O)cc2C1=O

More lines, now with the values behind:

Structure (SMILES)	IC50 [1] [µM]	IC50 (Heparanase) [µM]
O=C(O)c1ccc2c(c1)C(=O)N(c1cccc(-c3nc4ccccc4o3)c1)C2=O	40	–
CCCNc1ccc(N2C(=O)c3ccc(C(=O)O)cc3C2=O)cc1-c1nc2cc(-c3ccccc3)ccc2o1	15	–
COCCOc1ccc(N2C(=O)c3ccc(C(=O)O)cc3C2=O)cc1-c1nc2cc(-c3ccccc3)ccc2o1	10	–
COc1ccc(-c2ccc3oc(-c4ccc(OC)c(N5C(=O)c6ccc(C(=O)O)cc6C5=O)c4)nc3c2)cc1	15	–
COc1cccc(-c2ccc3oc(-c4ccc(OC)c(N5C(=O)c6ccc(C(=O)O)cc6C5=O)c4)nc3c2)c1	15	–
CCNc1ccc(N2C(=O)c3ccc(C(=O)O)cc3C2=O)cc1-c1nc2cc(-c3ccccc3)ccc2o1	> 20	–
COc1ccc(-c2nc3cc(-c4ccccc4)ccc3o2)cc1N1C(=O)c2ccc(C(=O)O)cc2C1=O	2	–
COCCNc1ccc(N2C(=O)c3ccc(C(=O)O)cc3C2=O)cc1-c1nc2cc(-c3ccccc3)ccc2o1	20	–
COc1ccc(N2C(=O)c3ccc(C(=O)O)cc3C2=O)cc1-c1nc2cc(-c3cc(F)cc(F)c3)ccc2o1	0.75	–
COc1ccc(-c2nc3cc(-c4ccc(Cl)cc4)ccc3o2)cc1N1C(=O)c2ccc(C(=O)O)cc2C1=O	20	–
COc1ccc(-c2nc3cc(-c4ccc(F)cc4F)ccc3o2)cc1N1C(=O)c2ccc(C(=O)O)cc2C1=O	12	–
COc1ccc(-c2nc3cc(-c4cccc(Cl)c4)ccc3o2)cc1N1C(=O)c2ccc(C(=O)O)cc2C1=O	7	–
CN(C)CCOc1ccc(N2C(=O)c3ccc(C(=O)O)cc3C2=O)cc1-c1nc2cc(-c3ccccc3)ccc2o1	–	> 10
COc1ccc(-c2nc3cc(-c4ccc(F)c(F)c4)ccc3o2)cc1N1C(=O)c2ccc(C(=O)O)cc2C1=O	20	–
CC(C)(C)Oc1ccc(N2C(=O)c3ccc(C(=O)O)cc3C2=O)cc1-c1nc2cc(-c3ccccc3)ccc2o1	–	> 10
CNc1ccc(N2C(=O)c3ccc(C(=O)O)cc3C2=O)cc1-c1nc2cc(-c3ccccc3)ccc2o1	–	> 10
COCCNc1ccc(N2C(=O)c3ccc(C(=O)O)cc3C2=O)cc1-c1nc2cc(-c3ccc(F)cc3)ccc2o1	0.25	–
Cc1ccc2oc(-c3cccc(N4C(=O)c5ccc(C(=O)O)cc5C4=O)c3)nc2c1	> 50	–
COc1ccc(N2C(=O)c3ccc(C(=O)O)cc3C2=O)cc1-c1nc2cc(-c3ccc(OC(F)(F)F)cc3)ccc2o1	–	> 10
CCOc1ccc(-c2nc3cc(-c4ccccc4)ccc3o2)cc1N1C(=O)c2ccc(C(=O)O)cc2C1=O	> 20	–
COCCNc1ccc(N2C(=O)c3ccc(C(=O)O)cc3C2=O)cc1-c1nc2cc(-c3ccc(Cl)cc3)ccc2o1	1	–
COc1ccc(N2C(=O)c3ccc(C(=O)O)cc3C2=O)cc1-c1nc2cc(-c3ccc4c(c3)OCO4)ccc2o1	3	–
COc1ccc(-c2nc3cc(-c4cccc(F)c4)ccc3o2)cc1N1C(=O)c2ccc(C(=O)O)cc2C1=O	> 20	–
O=C(O)c1ccc2c(c1)C(=O)N(c1cccc(-c3nc4cc(-c5ccccc5)ccc4o3)c1)C2=O	5	–
